Test results taken from patent US7919508B2, “3-piperidinylisochroman-5-ols as dopamine agonists” (Aventis Pharmaceuticals Inc., priority 2004, dated 2011).
Counter-ions that a name gives are not always drawn.

Experiments:
[1] = biological target: T1, human dopamine D1 receptor (Homo sapiens, UniProt P21728); experiment: [3H]-SCH-23390 binding to cloned human dopamine D1 receptors (CHO cell membranes); details: competitive binding, [3H]-SCH-23390, cloned human D1 in CHO membranes; read-out: D1 affinity Ki
T1 construct: A 1.4 Kb Hind III to Xho I fragment was subcloned into the vector pMMLV; expressed in transfected cells; host or cells: CHO cells, clone CHO-D1M#9 (plasmid pHD1MMLV), membranes
Experimental: [^3H]-SCH-23390 Binding to Cloned Human Dopamine D1 Receptors
Determination of relative binding affinity of potential neuropsychiatric and other agents for the human dopamine D1 receptor.
The human D, cDNA was obtained from the laboratory of Dr. Marc Caron in the vector pCMV5. A 1.4 Kb Hind III to Xho I fragment was subcloned into the vector pMMLV. The plasmid pHD1MMLV was then sequenced completely. Transient transfections in COS-7 cells were performed and D1 specific binding was obtained. The construct pHD1MMLV was then transfected stably into CHO cells and 72 G418-resistant clones were isolated. High expressors were identified by mRNA dot blot analysis. Six high expressors were further characterized by binding and then clone CHO-D1M#9 was chosen for detailed pharmacological characterization. This clone was then grown in suspension culture for the purpose of obtaining enough protein to accommodate several months of screening.
B. Cell Culture Conditions
• 1. […] Cells are transferred to suspension culture when at least […] are available (this allows for 300,000 cells/ml in a 50 ml spinner flask; this is the ideal suspension density). Cells are removed from flasks with trypsin, spun down at 1000×G and resuspended the pellet in fresh medium: • 50% CHO-SFM-II+50% Ham's F12 w/10% FBS (final FBS conc. 5%)+400 μg/ml G418+1% P/S. • 3. After the transfer to suspension culture, growth is monitored and cell viability is assessed using trypan blue exclusion. Total and viable cell count on 5 sectors of the hemocytometer are recorded. When the viable cell density reaches 600,000 cell/ml, the volume is doubled. • 4. After 1 week of growth in the 50/50 medium, the cells are spun down and transferred to a new spinner flask and replaced with 75% CHO-SFM II/25% Ham's F12+10% FBS plus the pen-strep and G418. Thereafter every 3 days, the medium is replaced with new medium containing a decreasing amount of FBS as follows:
• 5. The final maintenance culturing medium is made up as follows: • A stock mixture of 10 ml of pen-strep, 0.5 ml of […] (active; final concentration: 200 μg/ml) G418 and 1 ml of FBS are mixed and filtered and refrigerated. A volume (11.5 ml) of this mixture is added to a freshly opened 1 L bottle of CHO-SFM II. C. Membrane Preparation
Cells are harvested into 250 ml centrifuge tubes and spun down at 1200×G. The medium is removed and 100 ml PBS (phosphate-buffered saline) is added to each centrifuge tube; cells are resuspended and spun down again. The PBS is removed and the final pellet is homogenized with a polytron on ice at a medium setting.
The membrane suspension is diluted in water and samples (10, 50 and 100 μl; q.s. to 100 μl with water) are diluted with 100 μl of 1% SDS. The sample is vortexed and allowed to stand for 5 min. Two aliquots each of the solubilized protein sample are placed in clean 13×100 test tubes for the assay. Instructions are followed as outlined in the BioRad DC protein determination kit (Catalog # 500-0112). OD readings that fall between 0.1-0.5 (mid-range of standard curve) should typically be used for calculations. Protein concentrations are calculated from a standard curve using bovine serum albumin as standard by linear regression and interpolation.
Following cell harvesting and protein determination, the homogenate is diluted with 10% DMSO to the correct volume based on Bmax and relative size of individual experiments to be conducted. The concentrated protein is stored in cryogenic vials in aliquots of 1-1.5 ml. Samples may be stored in −80° C. freezer or in liquid nitrogen.

[2] = biological target: human dopamine D2Long (D2L) receptors (Homo sapiens, UniProt P14416)
human dopamine D2Long (D2L) receptors, sequence (P14416 whole entry): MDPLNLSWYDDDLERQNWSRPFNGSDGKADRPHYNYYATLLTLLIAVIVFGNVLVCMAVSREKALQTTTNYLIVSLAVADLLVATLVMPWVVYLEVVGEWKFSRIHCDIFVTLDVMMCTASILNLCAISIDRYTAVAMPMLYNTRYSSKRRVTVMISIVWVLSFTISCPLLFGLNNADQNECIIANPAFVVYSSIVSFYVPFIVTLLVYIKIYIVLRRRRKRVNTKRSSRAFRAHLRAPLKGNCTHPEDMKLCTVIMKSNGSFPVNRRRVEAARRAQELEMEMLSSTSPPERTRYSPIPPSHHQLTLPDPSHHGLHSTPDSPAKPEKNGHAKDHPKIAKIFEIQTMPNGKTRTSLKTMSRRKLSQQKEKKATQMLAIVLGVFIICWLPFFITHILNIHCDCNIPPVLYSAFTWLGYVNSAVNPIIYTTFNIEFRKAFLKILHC
Experimental: [N-Methyl-^3H]Spiroperidol Binding to Cloned Human Dopamine D2Long Receptors
This assay measures the in vitro activity of drugs on cloned human dopamine D2Long (D2L) receptors and predicts the direct dopamine-displacing properties of neuropsychiatric, cardiovascular and renal agents at human dopamine D2 receptors.
Cells were maintained in Ham's F12+10% Fetal Bovine Serum+Penicillin/Streptomycin (100 U/ml/100 μg/ml)+G418 (400 μg/ml) medium and were split using Trypsin-EDTA (1 ml/plate, room temperature for ˜2 min. or until cells have lifted off plates). • 2. […] Plates are incubated at 37° C.+5% CO2 for ˜3 days or until cells were confluent.
Cells are harvested by mechanical scraping, washed using PBS collected in 250 ml Corning polypropylene centrifuge tubes, spun down and resuspended in dH2O (final volume per harvest approximately 60 ml). Protein determination is made according to the method of Lowry (Biorad DC Assay Kit). Following the determination of the protein concentration, the protein is diluted into distilled water with 10% DMSO to the appropriate volume based on expression levels (Bmax). The concentrated protein is aliquoted into 1.5 ml screw top eppendorf tubes and placed into a −80° C. freezer.
Assay Requirement: 1 cryovial per two 96 well plates
0.5M Tris Wash Buffer, pH 7.7 • a) 44.4 g Tris HCl • 26.5 g Tris Base • q.s. to 1 Liter (0.5 M Tris buffer, pH 7.7 at 37° C.) • b) make a 1:10 dilution in distilled H2O (0.05 M. Tris buffer, pH 7.7) • 2. Tris Buffer containing physiological salts • a) Stock buffer • NaCl 7.014 g • KCl 0.372 g • CaCl2 0.222 g • MgCl2 0.204 g • q.s. To 100 ml with 0.5 M. Tris Buffer • b) Dilute 1:10 in distilled H2O • This yields 0.05 M. Tris HCl, pH 7.7, containing NaCl (120 mM), KCl (5 mM), CaCl2 (2 mM) and MgCl2 (1 mM) • Optional: add 0.1% ascorbic acid and check pH (in assays with compounds that may oxidize. • c) 1.0% polyethyleneimine stock in 0.5M Tris (reagent 1.a) • Dilute 1:10 in distilled H2O Binding Assay • 750 μl Tissue • 150 μl [^3H]NMSP • 100 μl vehicle (for total binding) or 30 μM (−)
eticlopride (for nonspecific binding) or appropriate drug concentration.
The 96-Well Packard Unifilters GF/B are incubated for >1 h at 25° C. in 0.1% polyethylenimine. The cold tissue is added last and mixed on a orbital shaker for a few seconds and is then incubated at 37° C. for 30 min in a shaking water bath. The assay is stopped by rapid filtration through Packard Unifilter plates. The filter membranes are then washed with 15 ml of ice-cold 0.05 M Tris buffer. The filters are then dried (˜15 min. under a heat lamp or incubated for 15 min. in a 60° C. oven) and a bottom seal is applied. Then 40 μl of Packard Microscint 20 scintillation cocktail are added and a permanent topseal (Type P) is applied and heat sealed. The plates are placed in a Packard Topcount.
Specific binding is defined as the difference between total binding and the binding in the presence of 3 μM S-(−)-eticlopride. Total binding is approximately 10% of the total added ligand. […] The percent inhibition at each drug concentration is the mean of duplicate determinations.

T1 sequence (P21728 whole entry, the tested form may be a part): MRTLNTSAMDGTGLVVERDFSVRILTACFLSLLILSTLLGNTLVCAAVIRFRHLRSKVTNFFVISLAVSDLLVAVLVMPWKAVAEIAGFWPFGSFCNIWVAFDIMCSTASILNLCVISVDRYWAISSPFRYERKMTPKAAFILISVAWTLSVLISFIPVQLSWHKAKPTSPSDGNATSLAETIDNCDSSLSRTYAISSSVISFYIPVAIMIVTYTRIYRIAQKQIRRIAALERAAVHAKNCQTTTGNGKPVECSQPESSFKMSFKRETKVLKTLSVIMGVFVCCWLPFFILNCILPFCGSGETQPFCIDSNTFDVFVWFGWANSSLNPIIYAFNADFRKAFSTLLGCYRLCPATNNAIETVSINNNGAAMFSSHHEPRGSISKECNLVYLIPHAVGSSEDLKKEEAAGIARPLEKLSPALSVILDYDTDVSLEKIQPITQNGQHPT

Structure (SMILES)	Ki [1]	Ki [2]
Cc1ccc2c(c1O)C[C@@H](C1CCN(S(=O)(=O)c3ccc(Cl)cc3Cl)CC1)O[C@H]2CN [Example 149, (1R,3S)-1-Aminomethyl-3-[1-(2,4-dichloro-benzenesulfonyl)-piperidin-4-yl]-6-methyl-isochroman-5-ol hydrochloride]	213 nM	589 nM
Cc1ccc2c(c1O)C[C@@H](C1CCN(S(=O)(=O)C(C)C)CC1)O[C@H]2CN [Example 155, (1R,3S)-1-Aminomethyl-6-methyl-3-[1-(Propane-2-sulfonyl)-piperidin-4-yl]-isochroman-5-ol hydrochloride]	217 nM	≥ 100000 nM
Cc1ccc2c(c1O)C[C@@H](C1CCN(C(=O)Nc3ccccc3O)CC1)O[C@H]2CN [Example 127, 4-((1R,3S)-1-Aminomethyl-5-hydroxy-6-methyl-isochroman-3-yl)-piperidine-1-carboxylic acid (2-hydroxy-phenyl)-amide hydrochloride]	105 nM	≥ 10000 nM
Cc1ccc2c(c1O)C[C@@H](C1CCN(Cc3ccc(F)cc3F)CC1)O[C@H]2CN [Example 50, (1R,3S)-1-Aminomethyl-3-[1-(2,4-difluoro-benzyl)-piperidin-4-yl]-6-methyl-isochroman-5-ol dihydrochloride]	47.3 nM	367 nM
Cc1ccc2c(c1O)C[C@@H](C1CCN(C(=O)N3c4ccccc4Sc4ccccc43)CC1)O[C@H]2CN [Example 137, [4-((1R,3S)-1-Aminomethyl-5-hydroxy-6-methyl-isochroman-3-yl)-piperidin-1-yl]-phenothiazin-10-yl-methanone hydrochloride]	412 nM	163 nM
Cc1ccc2c(c1O)C[C@@H](C1CCN(C(=O)N(C)C)CC1)O[C@H]2CN [Example 132, 4-((1R,3S)-1-Aminomethyl-5-hydroxy-6-methyl-isochroman-3-yl)-piperidine-1-carboxylic acid dimethylamide hydrochloride]	256 nM	≥ 100000 nM
Cc1ccc2c(c1O)C[C@@H](C1CCN(S(=O)(=O)c3ccc(-c4ccccc4)cc3)CC1)O[C@H]2CN [Example 152, (1R,3S)-1-Aminomethyl-3-[1-(biphenyl-4-sulfonyl)-piperidin-4-yl]-6-methyl-isochroman-5-ol hydrochloride]	169 nM	≥ 100000 nM
Cc1ccc2c(c1O)C[C@@H](C1CCN(CCC(C)NC(=O)c3ccc([N+](=O)[O-])cc3)CC1)O[C@H]2CN (stereo partly drawn) [Example 24, N-{3-[4-((1R,3S)-1-Aminomethyl-5-hydroxy-6-methyl-isochroman-3-yl)-piperidin-1-yl]-1-methyl-propyl}-4-nitro-benzamide dihydrochloride]	240 nM	638 nM
Cc1ccc2c(c1O)C[C@@H](C1CCN(Cc3ccccn3)CC1)O[C@H]2CN [Example 52, (1R,3S)-1-Aminomethyl-6-methyl-3-(1-pyridin-2-ylmethyl-piperidin-4-yl)-isochroman-5-ol dihydrochloride]	113 nM	≥ 10000 nM
Cc1ccc2c(c1O)C[C@@H](C1CCN(C(=O)N(C(C)C)C(C)C)CC1)O[C@H]2CN [Example 133, 4-((1R,3S)-1-Aminomethyl-5-hydroxy-6-methyl-isochroman-3-yl)-piperidine-1-carboxylic acid diisopropylamide hydrochloride]	241 nM	≥ 100000 nM
CCCNC[C@@H]1O[C@H](C2CCN(Cc3ccccc3)CC2)Cc2c1ccc(C)c2O [Example 174, (1R,3S)-3-(1-Benzyl-piperidin-4-yl)-6-methyl-1-propylaminomethyl-isochroman-5-ol]	510 nM	248 nM
Cc1ccc2c(c1O)C[C@@H](C1CCN(C(=O)N3CCOCC3)CC1)O[C@H]2CN [Example 134, [4-((1R,3S)-1-Aminomethyl-5-hydroxy-6-methyl-isochroman-3-yl)-piperidin-1-yl]-morpholin-4-yl-methanone hydrochloride]	240 nM	≥ 100000 nM
